Assay in all cases: growth of human tumour cells (NCI), 48 h
Test [1] has as its system PC-3 prostate.
The test system of test [2] is KM12 colon.
Test [3] concerns ACHN renal.
The test system of test [4] is A549 NSCLC.
In test [5] the test system is COLO 205 colon.
In test [6] the test system is HCC-2998 colon.
For test [7], the system named is SNB-19 CNS.
Test [8] has as its system HS 578T breast.
In test [9] the test system is HOP-92 NSCLC.
The subject of test [10] is SR leukemia.

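Cultured in 96-well plates, cells were exposed to test compound for 48 hours across five concentrations. Definition used: TGI = concentration required for complete inhibition of growth.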 Where only a bound is given, the exact number is not on record here.

As for `COc1cc(C(=O)N(C(=S)OC23CC4CC(CC(C4)C2)C3)c2ccccc2)cc(OC)c1OC`, the TGI in test [1] was above 100 µM; in [2], above 100 µM; in test [3] it was above 100 µM; in test [4], above 100 µM; in test [5], 39 µM; in test [6] it was 61.4 µM. The TGI in [7], in test [8] and in [9] was above 100 µM throughout.
In the case of `CC1=CC(=O)/C(=C/N2C(=O)CNC2=S)C(=O)O1`, the TGI in test [1], in test [2], in test [3], in test [4], in test [5] and in [6] was above 100 µM each time. Besides, the TGI in [7] and in test [9] was above 100 µM each time.
As to `O=C1/C(=C\c2cccc(Oc3ccccc3)c2)SC(c2ccccc2)N1c1cccc(Cl)c1` (stereo unspecified), the TGI in test [2], in test [3], in test [4], in test [5], in test [6] and in test [7] was above 100 µM each time. The TGI in test [8] and in [9] was above 100 µM in each case.
As for `C(/C=C/Nc1ccc(-c2ccccc2)cc1)=Nc1ccc(-c2ccccc2)cc1`, the TGI in test [1], in test [10], in test [2], in test [3], in [4] and in [5] was above 100 µM throughout. Moreover, the TGI in [7], in [8] and in test [9] was above 100 µM throughout.
Turning to `COc1ccc(NC(=S)Nc2c(C)n(C)n(-c3ccccc3)c2=O)cc1`, the TGI in [1], in test [2], in [3], in test [4], in test [5] and in [6] was above 100 µM throughout. Besides, the TGI in test [7], in [8] and in test [9] was above 100 µM throughout.
As to `NS(=O)(=O)c1nnc(NC(=O)/C=C/C(=O)O)s1`, the TGI in test [10], in [2], in [3], in [4], in test [5] and in [6] was above 100 µM in each case. In addition, the TGI in [7], in test [8] and in test [9] was above 100 µM throughout.
For the compound `O=C(Nc1nccs1)NS(=O)(=O)n1cnc2ccccc21`, the TGI in [1], in test [2], in [3], in [4], in test [5] and in test [6] was above 100 µM in each case. Further, the TGI in test [7], in [8] and in test [9] was above 100 µM in each case.
With `CCOC1=NC(C(F)(F)F)(C(F)(F)F)N=C(N2CCCCC2)O1`, the TGI in [1], in test [10], in [2], in [3], in test [4] and in test [5] was above 100 µM each time. Besides, the TGI in test [7], in test [8] and in [9] was above 100 µM in each case.
As to `COc1cc(C2SCC(=O)N2NC(=O)c2ccc(NC(C)=O)cc2OC)ccc1O` (stereo unspecified), the TGI in test [1], in test [10], in test [3], in test [4], in test [5] and in test [7] was above 100 µM each time. Also, the TGI in test [8] was above 100 µM; in test [9], 73.9 µM.
Turning to `OC[C@@H](O)[C@H](O)[C@@H](O)/C=N/Nc1ccc(Cl)nn1`, the TGI in test [1], in test [2], in test [3], in [4], in test [5] and in test [6] was above 100 µM throughout. For the same compound, the TGI in [7], in test [8] and in [9] was above 100 µM each time.
For `Clc1nc(Nc2nc3ccccc3[nH]2)nc(Cl)c1-c1ccccc1`, the TGI in [1] was 60.1 µM; in [10] it was above 100 µM; in test [2], above 100 µM; in test [3] it was 34.7 µM; in test [4] it was above 100 µM; in test [5], 51.3 µM. For the same compound, the figures for the TGI in [7], in test [8] and in [9] were above 100 µM, 56.4 µM and 35 µM, respectively.
Take `CO/N=C(\C(=O)[N-][n+]1cnn(CC(=O)O)c1)c1csc(N)n1`: the TGI in test [10], in test [2], in test [3], in test [4], in [5] and in [6] was above 10 µM throughout. In test [9], this compound returned a TGI above 10 µM.
Consider `COc1ccc(NC(=O)CC(=O)N2N=C(C)C(N=Nc3ccc(C(=O)O)cc3)C2=O)cc1` (stereo unspecified), for which the TGI in [1], in test [2], in test [3], in test [4], in test [5] and in [6] was above 100 µM throughout. Further, the TGI in test [7], in test [8] and in [9] was above 100 µM each time.
As to `CS(=O)(=O)CCC(N)P(=O)(O)O` (stereo unspecified), the TGI in [1], in test [10], in test [2], in test [3], in test [4] and in test [5] was above 100 µM each time. In addition, the TGI in test [7], in test [8] and in test [9] was above 100 µM in each case.

Source of the values: PubChem BioAssay (NCI).
